Experiment: Solubility (saturation concentration) of color developer free base in solvents at ambient temperature
Settings: ambient temperatures; liquid free base; stated, saturation concentration not evaluated
Experimental: To define the free base solution product compositions, the solubility of the free base form of color developers N-ethyl-N-(2-methanesulfonylaminoethyl)-2-methyl-p-phenylenediamine and N-ethyl-N-(2-hydroxyethyl)-2-methyl-p-phenylenediamine was determined in a number of potential solvents at ambient temperature, nominally 24° C.
A small quantity, about 3 weight % relative to the weight of the solvent, of N,N-diethylhydroxylamine (DEHA) was added as a preservative to each determination. Excess color developer free base identified above was added to each solvent and saturation was achieved by mixing for several hours at room temperature.

With `CCN(CC)c1ccc(N)cc1C` [N,N-diethyl-2-methyl-p-phenylenediamine] the “Miscibility with the water-soluble, water-miscible, hydroxy-containing solvent candidates” value was “fully miscible”.

Source: patent US6623914B2, “Method for preparing an acid salt of p-phenylenediamine-type photographic color developers” (Eastman Chemical Company, priority 2001, dated 2003)
